# Measurements as given in patent US20230158102A1 (priority 2020, published 2023).
# Where two headings read alike, the source gives them in different places. Numbered stars: 1 amine (or outer) side, 2 acyl side, 3 side chain; on linkers, the order of the positions; unused ones are H or OH. Bridge positions count the residues as written; N and C are the ends. Square brackets hold non-standard residues; d marks the D form. Peptide text beside a SMILES is read from it. * marks the point of attachment. Benzothiophen(2-yl)carbonyl = O=C(c1cc2ccccc2s1)*; X2 = CC[C@H](C)[C@@H](N[*:1])[C@@H](O)CC(=O)[*:2]; NMeY = CN[C@@H](Cc1ccc(O)cc1)C(=O)O; dNMeL = CN[C@H](CC(C)C)C(=O)O; Tos = Cc1ccc(S(=O)(=O)*)cc1; Hiv = CC(C)[C@H](O)C(=O)O
# What was measured:
# [1] = system: HIV-1 (recombinant virus NL4.3 Luc); assay: microbe, parasite or virus in culture; type: cell-based; conditions: for IC50: Human immunodeficiency virus 1, PBMC
# [2] = system: HIV-1 (recombinant virus NL4.3 Luc); assay: microbe, parasite or virus in culture; type: cell-based
# HCoV-229E = type: cell-based
smiles,measurement,setting,value
CC[C@H](C)[C@H]1NC(=O)[C@@H](NC(=O)[C@H](CC(C)C)N(C)C(=O)[C@@H]2CCCN2C(=O)C(C)=O)[C@@H](C)OC(=O)[C@H](Cc2ccc(OC)cc2)N(C)C(=O)[C@@H]2CCCN2C(=O)[C@H](CC(C)C)NC(=O)[C@@H](C)C(=O)[C@H](C(C)C)OC(=O)C[C@@H]1O [Compound 8],Antiviral activity,[1]; PBMCs,showed also antiviral activity
same,Antiviral activity,[2]; MT-2 cells,showed also antiviral activity
same,"IC50 value, fold lower than the specific concentration of 10 μM","[2]; MT-2 cells and PBMCs, not told apart",100 fold
same,Specificity of antiviral activity,"[2]; at 10 μM, MT-2 cells and PBMCs, not told apart",specific
same,Specificity of antiviral activity,"[2]; at 50 μM, MT-2 cells and PBMCs, not told apart",non-specific
CC[C@H](C)[C@H]1NC(=O)[C@@H](NC(=O)[C@@H](CC(C)C)N(C)S(=O)(=O)c2ccc(C)cc2)[C@@H](C)OC(=O)[C@H](Cc2ccc(OC)cc2)N(C)C(=O)[C@@H]2CCCN2C(=O)[C@H](CC(C)C)NC(=O)[C@H](C(C)C)OC(=O)C[C@@H]1O [Compound 11] (Tos-[dNMeL]T[X2][Hiv]LP[NMeY](Me); ester 2-C),IC50,[1],69.4 nM
CC[C@H](C)[C@H]1NC(=O)[C@@H](NC(=O)[C@@H](CC(C)C)N(C)C(=O)[C@@H]2CCCN2C(=O)[C@H](C)NC(=O)[C@@H](Cc2ccccc2)NC(=O)OC(C)(C)C)[C@@H](C)OC(=O)[C@H](Cc2ccc(OC)cc2)N(C)C(=O)[C@@H]2CCCN2C(=O)[C@H](CC(C)C)NC(=O)[C@@H](C)C(=O)[C@H](C(C)C)OC(=O)C[C@@H]1O [Compound 9],IC50,"[1]; PBMCs, read-out: IC50",0.63 nM
same,Antiviral activity (fluorescence images),HCoV-229E,remarkable antiviral properties are seen across all concentrations
same,Cell growth / viability (fluorescence images),Huh-7 cells,cells remain viable at all concentrations
CC[C@H](C)[C@H]1NC(=O)[C@@H](NC(=O)[C@@H](CC(C)C)N(C)C(=O)c2cc3ccccc3s2)[C@@H](C)OC(=O)[C@H](Cc2ccc(OC)cc2)N(C)C(=O)[C@@H]2CCCN2C(=O)[C@H](CC(C)C)NC(=O)[C@H](C(C)C)OC(=O)C[C@@H]1O [Compound 10] ({Benzothiophen(2-yl)carbonyl}-[dNMeL]T[X2][Hiv]LP[NMeY](Me); ester 2-C),IC50,[1],0.86 nM
same,Antiviral activity (fluorescence images),HCoV-229E,remarkable antiviral properties are seen across all concentrations
same,Cell growth / viability (fluorescence images),"Huh-7 cells; Huh-7, 50 nM, 5 nM and 0.5 nM, 24 hpi",cells remain viable at all concentrations
